Test results published in patent US8937089B2, “Synergistic mixtures of anthranilamide invertebrate pest control agents” (priority 2004, dated 2015).

System: beet armyworm (Spodoptera exigua)
Experiment: Test I: control of beet armyworm, spray on tomato plants, excised leaves, % mortality and % feeding at 72 hours
Assay type: in vivo
Method: For evaluating control of beet armyworm (Spodoptera exigua), methomyl was in the liquid formulation as Lannate® LV (29% of active ingredient). Compound 1 was in a water dispersible granules (WDG) formulation with 35% active ingredient. The test compounds were dissolved in water. Enough water was added to make 100 ppm of active ingredient for each compound. Serial dilutions were made to obtain the appropriate concentrations. To obtain the desired mixture concentrations of each compound, twice the desired concentration of each of the two mixture partner compounds were mixed together in equal volumes.
The diluted solutions of the test compounds were sprayed to run-off on three-week-old tomato plants. The plants were placed on a rotating turntable sprayer (10 rpm). Test solutions were applied using a flat fan air-assisted nozzle (Spraying Systems 122440) at 10 psi (69 kPa). After each treated plant had dried, leaves were excised from the treated plant. The leaves were cut into pieces, which were placed singly into 5.5 cm-by-3.5 cm cells of a sixteen-cell plastic tray. Each cell contained a 2.5-cm square of moistened chromatography paper to prevent desiccation. One insect was placed in each cell. There two trays per treatment. […]

How did the “% feeding” value (Compound 1 0.022 ppm) turn out when `CNC(=O)c1cc(Cl)cc(C)c1NC(=O)c1cc(Br)nn1-c1ncccc1Cl` [Compound 1, 3-bromo-N-[4-chloro-2-methyl-6-[(methylamino)carbonyl]phenyl]-1-(3-chloro-2-pyridinyl)-1H-pyrazole-5-carboxamide] was run?
Its value is 9%.

What about the “% feeding” value (Compound 1 0.041 ppm) of the same compound?
Its value is 6%.

And the “% feeding” value (Compound 1 0.163 ppm)?
The value was 2%.

What about the “% feeding” value (Compound 1 0.209 ppm) of the same compound?
Its value is 2%.

And the “% feeding” value (Compound 1 0.30 ppm)?
The value was 1%.

What about the “% feeding” value (Compound 1 0.60 ppm) of the same compound?
Its value is 1%.

What about the mortality at 0.022 ppm (Spodoptera exigua, Compound 1 0.022 ppm, read-out: % mortality (observed)) of the same compound?
The mortality at 0.022 ppm was 13%.

What about the mortality at 0.041 ppm (Spodoptera exigua, Compound 1 0.041 ppm, read-out: % mortality (observed)) of the same compound?
Its mortality at 0.041 ppm is 44%.

And the mortality at […] (Spodoptera exigua, Compound 1 0.076 ppm, read-out: % mortality (observed))?
The mortality at […] was 25%.

And the mortality at 0.163 ppm (Spodoptera exigua, Compound 1 0.163 ppm, read-out: % mortality (observed))?
Its mortality at 0.163 ppm is 35%.

And the mortality at 0.209 ppm (Spodoptera exigua, Compound 1 0.209 ppm, read-out: % mortality (observed))?
The mortality at 0.209 ppm was 47%.

And the mortality at 0.3 ppm (Spodoptera exigua, Compound 1 0.30 ppm, read-out: % mortality (observed))?
Its mortality at 0.3 ppm is 59%.

What about the mortality at 0.6 ppm (Spodoptera exigua, Compound 1 0.60 ppm, read-out: % mortality (observed)) of the same compound?
The mortality at 0.6 ppm was 75%.
